Measured values taken from US9447187B2, “Use of an anti-CD200 antibody for prolonging the survival of allografts” (Alexion Pharmaceuticals, Inc., priority 2011, dated 2016).
“And” between values parts separate entries of the source, which are not always exact repeats. Identical values can stand only once.

System: cardiac allograft (C57BL/6 to BALB/c mice)
Test: C57BL/6 to BALB/c fully MHC-mismatched mouse heart transplantation model (graft survival, pulsation)
Assay type: in vivo
Description: The studies described in this section examined graft survival in a C57BL/6 to BALB/c fully MHC-mismatched mouse heart transplantation model. Each experimental group included 4-6 animals. Some of the experimental groups were treated with antibodies. […] Antibody 4 is a control, murine monoclonal antibody that shares a variable region with Antibody 2. […]
An experiment was also performed to evaluate whether use of an anti-CD200 antibody can reduce the duration or amount of mycophenolate mofetil that is necessary to prolong the survival of an allograft in a recipient mammal. First, a pilot experiment was performed to determine the dose of, and duration of, mycophenolate mofetil required to prolong allograft survival in mice. As described in Example 3, these studies examined graft survival in a C57BL/6 to BALB/c fully MHC-mismatched mouse heart transplantation model. Each experimental group included five (5) animals. The three experimental groups were treated as follows:
Group 1-PE (pilot experiment): cardiac allograft-bearing mice were orally administered mycophenolate mofetil at a dose of 120 mg/kg each day of the study beginning at the time of transplant;
Group 2-PE: cardiac allograft-bearing mice were orally administered mycophenolate mofetil at a dose of 80 mg/kg each day of the study beginning at the time of transplant; and
Group 3-PE: cardiac allograft-bearing mice were orally administered FK-506 at a dose of 16 mg/kg for each day of the study beginning at the time of transplant. […]
As described in Example 3, these studies examined graft survival in a C57BL/6 to BALB/c fully MHC-mismatched mouse heart transplantation model. Each experimental group included five (5) animals. The five experimental groups were treated as follows: […]
As described in Example 3, these studies examined graft survival in a C57BL/6 to BALB/c fully MHC-mismatched mouse heart transplantation model. Each experimental group included five (5) animals. The three experimental groups were treated as follows, with treatment beginning at the time of transplantation: […]

SMILES	Individual Survival (FK-506 alone, 16 mg/kg orally each day of the study, 16 mg/kg)	Individual Survival (mycophenolate mofetil alone, 80 mg/kg orally each day of the study (pilot experiment), 80 mg/kg)	Mean Survival (mycophenolate mofetil alone, 80 mg/kg orally each day of the study (pilot experiment), listed as MMF, 80 mg/kg)	Individual Survival (mycophenolate mofetil alone, 120 mg/kg orally each day of the study (pilot experiment), 120 mg/kg)
C=CC[C@@H]1/C=C(\C)C[C@H](C)C[C@H](OC)[C@H]2O[C@@](O)(C(=O)C(=O)N3CCCC[C@H]3C(=O)O[C@H](/C(C)=C/[C@@H]3CC[C@@H](O)[C@H](OC)C3)[C@H](C)[C@@H](O)CC1=O)[C@H](C)C[C@@H]2OC [FK-506, tacrolimus]	23 days and 25 days (2×) and 26 days and 27 days			
COc1c(C)c2c(c(O)c1C/C=C(\C)CCC(=O)OCCN1CCOCC1)C(=O)OC2 [mycophenolate mofetil]		18 days and 19 days and 20 days and 22 days (2×)	approximately 20.2 days	20 days and 21 days and 22 days and 23 days and 25 days
